Source: patent US12281057B2 (VERTEX PHARMACEUTICALS INCORPORATED, priority 2017, dated 2025)

biological target: truncated form of human NaV 1.8 with full channel activity (Homo sapiens, UniProt Q9Y5Y9); test: E-VIPR Assay Method A for detecting and measuring Nav inhibition (HEK cells, membrane potential FRET dyes, electrical stimulation); assay type: cell-based; settings: HEK cells expressing human NaV 1.8, HS (human serum) in compound loading buffer, 11 point dose response, top dose 3 μM, Table 20, read-out: Nav 1.8 MedChem Optical Assay EVIPR Assay Method A HS IC50
Procedure, shortened: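 Read-out: FRET membrane-potential dye ratio (460/580 nm) before and during E-VIPR field stimulation at 10 Hz for 10 s, expressed as % activity between DMSO and positive controls. Cells: HEK with truncated human NaV1.8; compound preincubated 30 min at room temp, final DMSO 0.625%.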

Chain of truncated form of human NaV 1.8 with full channel activity (Q9Y5Y9 126-1722 limits assumed): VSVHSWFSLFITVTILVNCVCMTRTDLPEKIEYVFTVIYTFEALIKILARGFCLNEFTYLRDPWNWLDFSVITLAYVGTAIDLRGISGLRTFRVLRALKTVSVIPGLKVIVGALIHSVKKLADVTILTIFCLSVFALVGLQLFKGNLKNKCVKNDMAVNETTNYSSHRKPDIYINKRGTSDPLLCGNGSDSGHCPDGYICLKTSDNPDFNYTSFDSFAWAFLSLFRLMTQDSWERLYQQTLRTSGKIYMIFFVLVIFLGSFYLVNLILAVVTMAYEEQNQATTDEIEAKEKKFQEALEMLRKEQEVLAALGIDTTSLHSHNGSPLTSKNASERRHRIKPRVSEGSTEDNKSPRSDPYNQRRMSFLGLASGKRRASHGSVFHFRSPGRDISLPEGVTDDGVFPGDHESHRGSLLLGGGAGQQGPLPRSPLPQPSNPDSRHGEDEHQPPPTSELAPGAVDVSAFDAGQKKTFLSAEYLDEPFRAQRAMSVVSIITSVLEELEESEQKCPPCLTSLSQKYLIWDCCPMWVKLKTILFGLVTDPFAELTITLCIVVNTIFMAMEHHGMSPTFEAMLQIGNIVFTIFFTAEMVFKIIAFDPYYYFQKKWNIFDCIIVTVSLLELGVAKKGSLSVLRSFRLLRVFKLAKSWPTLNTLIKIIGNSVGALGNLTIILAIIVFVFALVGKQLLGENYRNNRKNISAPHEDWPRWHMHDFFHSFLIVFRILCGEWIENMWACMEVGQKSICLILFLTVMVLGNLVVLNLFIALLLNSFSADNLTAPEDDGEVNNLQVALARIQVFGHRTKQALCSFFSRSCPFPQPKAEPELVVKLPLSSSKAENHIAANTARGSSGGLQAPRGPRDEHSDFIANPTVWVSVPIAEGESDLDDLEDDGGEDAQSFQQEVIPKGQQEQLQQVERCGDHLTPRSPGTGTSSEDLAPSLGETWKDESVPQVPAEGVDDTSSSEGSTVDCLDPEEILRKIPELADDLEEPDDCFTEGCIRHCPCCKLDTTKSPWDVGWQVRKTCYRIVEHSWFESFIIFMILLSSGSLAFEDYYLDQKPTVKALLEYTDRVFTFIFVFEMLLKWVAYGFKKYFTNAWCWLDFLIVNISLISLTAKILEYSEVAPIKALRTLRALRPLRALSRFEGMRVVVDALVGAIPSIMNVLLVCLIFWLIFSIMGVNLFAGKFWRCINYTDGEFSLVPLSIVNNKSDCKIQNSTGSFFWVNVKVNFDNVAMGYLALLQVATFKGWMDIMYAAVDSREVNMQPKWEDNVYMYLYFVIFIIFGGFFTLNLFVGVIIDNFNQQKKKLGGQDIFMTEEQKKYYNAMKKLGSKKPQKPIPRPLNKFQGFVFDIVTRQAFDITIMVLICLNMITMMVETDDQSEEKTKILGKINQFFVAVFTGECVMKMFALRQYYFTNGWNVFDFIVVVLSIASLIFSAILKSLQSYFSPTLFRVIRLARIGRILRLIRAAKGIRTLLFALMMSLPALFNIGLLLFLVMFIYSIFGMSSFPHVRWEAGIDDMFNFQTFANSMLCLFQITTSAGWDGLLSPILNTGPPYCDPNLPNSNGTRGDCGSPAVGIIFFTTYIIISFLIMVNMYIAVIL

| IC50 | SMILES |
| --- | --- |
| 4 nM | COc1cc(OC(F)(F)F)ccc1Oc1cc(F)c(F)c(F)c1C(=O)Nc1ccc(F)c(C(N)=O)c1 [Compound 11, N-(3-carbamoyl-4-fluoro-phenyl)-2,3,4-trifluoro-6-[2-methoxy-4-(trifluoromethoxy)phenoxy]benzamide] |
| 10 nM | COc1cc(OC(F)(F)F)ccc1Oc1cc(OC(F)F)cc(F)c1C(=O)Nc1ccnc(C(N)=O)c1 [Compound 20, 4-[[4-(difluoromethoxy)-2-fluoro-6-[2-methoxy-4-(trifluoromethoxy)phenoxy]benzoyl]amino]pyridine-2-carboxamide] |
| 2 nM | COc1cc(OC(F)(F)F)ccc1Oc1ccc(C(F)(F)F)c(F)c1C(=O)Nc1ccnc(C(N)=O)c1 [Compound 4, 4-[[2-fluoro-6-[2-methoxy-4-(trifluoromethoxy)phenoxy]-3-(trifluoromethyl)benzoyl]amino]pyridine-2-carboxamide] |
| 3 nM | [2H]C([2H])([2H])Oc1cc(OC(F)(F)F)ccc1Oc1ccc(OC(F)(F)F)c(F)c1C(=O)Nc1ccnc(C(N)=O)c1 [Compound 8, 4-[[2-fluoro-6-[2-(trideuteriomethoxy)-4-(trifluoromethoxy)phenoxy]-3-(trifluoromethoxy)benzoyl]amino]pyridine-2-carboxamide] |

same assay, conditions: HEK cells expressing human NaV 1.8, HS (human serum) in compound loading buffer, 11 point dose response, top dose 3 μM, Table 20A, read-out: Nav 1.8 MedChem Optical Assay EVIPR Assay Method A HS IC50

| IC50 | SMILES |
| --- | --- |
| 7 nM | [2H]C([2H])([2H])Oc1c(Oc2ccc(C(F)(F)F)c(F)c2C(=O)Nc2ccnc(C(=O)NC)c2)ccc(OC(F)(F)F)c1F [Compound 228, 4-[[2-Fluoro-6-[3-fluoro-2-(trideuteriomethoxy)-4-(trifluoromethoxy)phenoxy]-3-(trifluoromethyl)benzoyl]amino]-N-methyl-pyridine-2-carboxamide] |
| 11 nM | NC(=O)c1cc(NC(=O)c2c(Oc3ccc(OC(F)(F)F)cc3)cnc(C(F)(F)F)c2F)ccc1F [Compound 62, N-(3-Carbamoyl-4-fluoro-phenyl)-3-fluoro-5-[4-(trifluoromethoxy)phenoxy]-2-(trifluoromethyl)pyridine-4-carboxamide] |
| 430 nM | COc1cc(OC(F)(F)F)ccc1Oc1cc(Cl)cc(OC)c1C(=O)Nc1cc(C(N)=O)ncc1C [Compound 133, 4-[[4-Chloro-2-methoxy-6-[2-methoxy-4-(trifluoromethoxy)phenoxy]benzoyl]amino]-5-methyl-pyridine-2-carboxamide] |
| 54 nM | COc1cc(OC(F)(F)F)ccc1Oc1ccc(C(F)(F)F)c(F)c1C(=O)Nc1cccc(C(=O)N(C)C)c1 [Compound 96, N-[3-(dimethylcarbamoyl)phenyl]-2-fluoro-6-[2-methoxy-4-(trifluoromethoxy)phenoxy]-3-(trifluoromethyl)benzamide] |
| 21 nM | COc1cc(OC(F)(F)F)ccc1Oc1cnc(C(F)(F)F)cc1C(=O)Nc1ccc(F)c(C(N)=O)c1 [Compound 68, N-(3-Carbamoyl-4-fluoro-phenyl)-5-[2-methoxy-4-(trifluoromethoxy)phenoxy]-2-(trifluoromethyl)pyridine-4-carboxamide] |
| 22 nM | COc1cc(OC(F)(F)F)ccc1Oc1cc(C2(C)CC2)ncc1C(=O)Nc1ccc(F)c(C(N)=O)c1 [Compound 102, N-(3-Carbamoyl-4-fluoro-phenyl)-4-[2-methoxy-4-(trifluoromethoxy)phenoxy]-6-(1-methylcyclopropyl)pyridine-3-carboxamide] |
| 39 nM | [2H]C([2H])([2H])Oc1cc(OC(F)(F)F)ccc1Oc1ccc(C(F)(F)F)c(OC)c1C(=O)Nc1cc(C(N)=O)ncc1C [Compound 146, 4-[[2-Methoxy-6-[2-(trideuteriomethoxy)-4-(trifluoromethoxy)phenoxy]-3-(trifluoromethyl)benzoyl]amino]-5-methyl-pyridine-2-carboxamide] |
| 170 nM | COc1cc(F)ccc1-c1cc(C(F)(F)F)ccc1C(=O)Nc1ccc(F)c(C(N)=O)c1 [Compound 162, N-(3-carbamoyl-4-fluoro-phenyl)-2-(4-fluoro-2-methoxy-phenyl)-4-(trifluoromethyl)benzamide] |

The next lines start with the compound.

| SMILES | IC50 |
| --- | --- |
| NC(=O)c1ccc(NC(=O)c2c(Oc3ccc(OC(F)(F)F)cc3)ccc(C(F)(F)F)c2F)cn1 [Compound 60, 5-[[2-fluoro-6-[4-(trifluoromethoxy)phenoxy]-3-(trifluoromethyl)benzoyl]amino]pyridine-2-carboxamide] | 185 nM |
| Cc1cnc(C(N)=O)cc1NC(=O)c1c(Oc2ccc(OC(F)(F)F)cc2)ccc(C(F)(F)F)c1F [Compound 242, 4-[[2-fluoro-6-[4-(trifluoromethoxy)phenoxy]-3-(trifluoromethyl)benzoyl]amino]-5-methyl-pyridine-2-carboxamide] | 44 nM |
| COc1ccc(Oc2ccc(C(F)(F)F)c(F)c2C(=O)Nc2ccnc(C(N)=O)c2)c(OC(F)(F)F)c1 [Compound 196, 4-[[2-Fluoro-6-[4-methoxy-2-(trifluoromethoxy)phenoxy]-3-(trifluoromethyl)benzoyl]amino]pyridine-2-carboxamide] | 44 nM |
| COc1cc(OC(F)(F)F)ccc1Oc1cnc(C(F)(F)F)c(F)c1C(=O)Nc1ccc(F)c(C(N)=O)c1 [Compound 45, N-(3-carbamoyl-4-fluoro-phenyl)-3-fluoro-5-[2-methoxy-4-(trifluoromethoxy)phenoxy]-2-(trifluoromethyl)pyridine-4-carboxamide] | 1 nM |
| [2H]C([2H])([2H])Oc1cc(OC(F)(F)F)ccc1Oc1cc(C(F)(F)F)cc(C(F)(F)F)c1C(=O)Nc1ccc(C(N)=O)nc1 [Compound 176, 5-[[2-[2-(Trideuteriomethoxy)-4-(trifluoromethoxy)phenoxy]-4,6-bis(trifluoromethyl)benzoyl]amino]pyridine-2-carboxamide] | 190 nM |
| COc1cc(OC(F)(F)F)ccc1Oc1cc(C(F)(F)F)cc(F)c1C(=O)Nc1ccc(F)c(C(N)=O)c1 [Compound 140, N-(3-Carbamoyl-4-fluoro-phenyl)-2-fluoro-6-[2-methoxy-4-(trifluoromethoxy)phenoxy]-4-(trifluoromethyl)benzamide] | 5 nM |
| COc1c(C(F)(F)F)ccc(Oc2ccc(OC(F)(F)F)cc2)c1C(=O)Nc1ccnc(C(N)=O)c1 [Compound 91, 4-[[2-Methoxy-6-[4-(trifluoromethoxy)phenoxy]-3-(trifluoromethyl)benzoyl]amino]pyridine-2-carboxamide] | 40 nM |
| COc1cc(OC(F)(F)F)ccc1Oc1cc([C@H]2C[C@@H]2C)ncc1C(=O)Nc1ccc(F)c(C(N)=O)c1 (single isomer, unassigned) [Compound 113] | 84 nM |
| COc1cc(OC(F)(F)F)ccc1Oc1cc(Cl)cc(F)c1C(=O)Nc1cc(C(N)=O)ncc1C [Compound 130, 4-[[4-Chloro-2-fluoro-6-[2-methoxy-4-(trifluoromethoxy)phenoxy]benzoyl]amino]-5-methyl-pyridine-2-carboxamide] | 27 nM |
| [2H]C([2H])([2H])Oc1c(Oc2ccc(C(F)(F)F)c(F)c2C(=O)Nc2ccc(C(N)=O)nc2)ccc(OC(F)(F)F)c1F [Compound 221, 5-[[2-Fluoro-6-[3-fluoro-2-(trideuteriomethoxy)-4-(trifluoromethoxy)phenoxy]-3-(trifluoromethyl)benzoyl]amino]pyridine-2-carboxamide] | 14 nM |
| [2H]C([2H])([2H])Oc1cc(OC(F)(F)F)ccc1Oc1cc(OC(F)(F)F)cc(F)c1C(=O)Nc1ccc(C(N)=O)nc1 [Compound 173, 5-[[2-Fluoro-6-[2-(trideuteriomethoxy)-4-(trifluoromethoxy)phenoxy]-4-(trifluoromethoxy)benzoyl]amino]pyridine-2-carboxamide] | 52 nM |
